The text below walks through data of patent publication US11464751B2, “Use of fluoroethylnormemantine for the prevention and treatment of anxiety” (REST THERAPEUTICS, priority 2017, dated 2022).

Assay [1] has as its system naive rats (Wistar). As to the kind of experiment: Fear conditioning + extinction + stabilization (PTSD model). The assay is classed as in vivo, rat. To be noted: for Percentage of time of tetany (freezing) during the stabilization phase: 10 mg/kg. The text has this: Several animal models have been developed to mimic the traumatic events that induce intense and recurrent fear symptoms characteristic of PTSD. • Pavlovian fear conditioning of the animals: This animal model consists of Pavlovian-type fear conditioning (Zovkic, Neuropsychopharmacology Reviews (2013) 38, 77-93): mice (or rats) are trained to associate exposure to danger (electric shock, etc.) with the presence of a specific cue or environment (sound cue for example). The memory of this association (danger-cue) is later tested by measuring tetany behavior (through fear) when the animal is re-exposed to the conditioning cue in the absence of real danger.
Again, the occurrence of symptoms of PTSD are assessed after a certain period of time, without exposure to the hazard, to simulate the long-term onset of PTSD pathology. • Fear extinction: After a fear conditioning as described above it can be of interest to apply a protocol to extinguish this fear. Classically, this phase is placed 24 hours after the conditioning phase.
The extinction protocols model the relearning of the normal (non-fear-motivated) response to the cue (sound) and are very useful in modeling PTSD. • Fear stabilization: It can be useful, to assess the performance of a treatment, to add a stabilization phase after the extinction phase, spaced 24 h apart. Typically, this phase puts the animals back under the extinction phase conditions. It then allows the detection of staggered performances of the treatments, but also of the resurgence of tetany (rebound effect).
In the following examples, the effects of memantine, propranolol and fluoroethylnormemantine (FENM, the subject of the present invention) are studied in naive rats (Wistar) subjected to various tests related to depression or anxiety and then compared.
The test substances are administered to rats intraperitoneally in a volume of 5 ml/kg, 30 minutes before the behavioral tests are performed.
The injected solutions contain either of the molecules in the form of one of their salts, a hydrochloride (memantine·HCl and FENM·HCl) for the nitrogen derivatives and as such for propranolol, at the concentrations indicated below in a mixture of 95% (NaCl 0.9% ww in water)/5% ethanol. In each experiment, the dose per kilogram is referenced.
The applicant used a fear conditioning test in which the clue (neutral conditional stimulus) is a sound, coupled with a danger (aversive unconditional stimulus) which is an electric shock delivered by the floor of the box. This conditioning is followed by a fear extinction phase with injection of the treatment solutions to be tested and then by a test phase itself. • Fear Conditioning Phase (FC): fear conditioning takes place in a standard conditioning box (context A, white box in Table 7) and the rats (8 per group) are subjected to 3 “sound-electroshock” pairs at times of 180 s, 381 s and 582 s after being placed in the box. Each sound lasts 20 s and each electroshock lasts 1 s with a current of 1 mA. • The fear extinction phase (Ext.) is conducted as follows: the rats are placed in a box similar to the one that will be used for the final test (context B, pink box in Table 7), for a 25-minute session. During this session, 24 presentations are made with the same sound as that used during the conditioning session (20 s each, 35 s apart). Of course, no electric shock is delivered, and the percentage of time of tetany (“freezing”) during the phase is recorded. • Stabilization phase: the day after the extinction phase, 30 minutes before the test phase, […] of 3 sounds (same sequence as used for conditioning), recording the percentage of time they remain still during this test phase. […]

In assay [2] the test system is naive rats (Wistar). To be noted: 5 mg/kg, only after 7 days of treatment; cited from earlier work.

As to `CC(C)NCC(O)COc1cccc2ccccc12` (stereo not drawn) [Propranolol, propranolol, reference compound], the “Percentage of time of tetany (freezing) during the stabilization phase” value in assay [1] (Early treatment: one injection 30 minutes before the extinction phase) was determined as 26%; in assay [1] (Late treatment: one injection 30 minutes before the stabilization phase), 29%; in assay [1] (Protective effect: one injection 30 minutes before the conditioning phase) it was 28%. For the same compound, the “tetany in the stabilization phase compared with control” value in assay [1] (administered at conditioning, early or late post-traumatic treatment) is on record as “does not differentiate from the control”. Further, the “tetany during the extinction phase” value in assay [1] (administered during the extinction phase, effect lost during the stabilization phase) is on record as “reduces tetany”.

As for `CNCCC(Oc1ccc(C(F)(F)F)cc1)c1ccccc1` (stereo not drawn) [fluoxetine], the “anxiolytic activity (light-dark box, for comparison)” value in assay [2] is listed as “anxiolytic activity”.
